Where two headings read alike, the source gives them in different places. No end group written: not given here.
How the values were obtained:
HLA-A*24:02 molecule = HLA-A*24:02 molecule (Homo sapiens, UniProt P04439, D101N/D140Y/D185E/E176V/E190D/F33S/G103R/G107R/I119L/I121M/I306V/K335N/L105A/L180Q/L300P/N151K/N90K/Q86E/Q94H/R106L/R138H/R89G/T104I/T345S/V100E/W191G/Y123F); experiment: Binding of peptide to HLA-A*24:02 molecule using C1R-A24 cells
Procedure: Measurement of binding ability of a peptide to an HLA-A*24:02 molecule, which is a product of an HLA-A*24:02 gene, was performed using C1R-A24 cells expressing an HLA-A*24:02 molecule (Cells created by Professor Masafumi Takiguchi, Kumamoto University, was provided by Assistant Professor Masaki Yasukawa, Ehime University, with permission).
First, the C1R-A24 cells were exposed to acidic conditions at pH 3.3 for 30 seconds to dissociate and remove an endogenous peptide originally binding to an HLA-A*24:02 molecule and light chain β2m commonly associated with an HLA class I molecule. After neutralization, purified β2m was added to the C1R-A24 cells, and the mixture was added to a peptide dilution series and incubated on ice for four hours.
Thereafter, the number of MHC-peps for each C1R-A24 cell (proportional to a fluorescence intensity of the fluorescent antibody) was quantitatively measured using a fluorescence cell analyzer FACScan (Becton-Dickinson).

HLA-A*02:01 molecule = biological target: T1, HLA-A*02:01 molecule (Homo sapiens, UniProt P04439, D140Y/D185E/D98H/E176V/E277Q/G131W/G231S/I119V/I121R/I166T/I218V/L300P/L318F/N151K/N90K/P208A/P217A/Q86G/Q94H/R138H/R169H/T345S); experiment: Binding of peptide to HLA-A*02:01 molecule using cell line T2
T1 construct: using a cell line T2 (purchased from ATCC) expressing an HLA-A*02:01 molecule; host or cells: T2 cell line
Procedure: Measurement of binding ability of a peptide to an HLA-A*02:01 molecule, which is a product of an HLA-A*02:01 gene, was performed using a cell line T2 (purchased from ATCC) expressing an HLA-A*02:01 molecule.
T2 cells and purified β2m were added to a serial dilution series of a peptide whose binding ability was to be measured, and then the mixture was incubated at 37° C. for four hours. HLA-A*02:01 molecules whose expression level increased in a peptide concentration-dependent manner by this time point were stained using an association-type specific fluorescently labeled monoclonal antibody BB7.2.
Thereafter, the amount of fluorescence per cell was measured with a flow cytometer, and a dissociation constant Kd value was calculated by the method disclosed in the article (Udaka et al., Immunogenetics, 51, 816-828, 2000) by the present inventor.

HLA-A*02:06 molecule = biological target: T2, HLA-A*02:06 molecule (Homo sapiens, UniProt P04439, D140Y/D185E/D98H/E176V/E277Q/F33Y/G131W/G231S/I119V/I121R/I166T/I218V/L300P/L318F/N151K/N90K/P208A/P217A/Q86G/Q94H/R138H/R169H/T345S); experiment: Binding of peptide to HLA-A*02:06 molecule using RA2.6 cells
T2 construct: expressed in transfected cells; host or cells: RA2.6 cells (mouse TAP-deficient RMAS with HLA-A*02:06 cDNA)
Procedure: Measurement of binding ability of a peptide to an HLA-A*02:06 molecule, which is a product of an HLA-A*02:06 gene, was performed using RA2.6 cells (a cell line newly created at Kochi University) obtained by introducing cDNA of the HLA-A*02:06 gene into RMAS, which is a mouse transporter associated with antigen processing (TAP)-deficient cell line.
A fluorescently labeled monoclonal antibody BB7.2 that specifically recognizes a peptide binding type HLA-A*02:06 molecule was added thereto, and the mixture was incubated on ice for 20 minutes to stain the cells.

[1] = Measured value of allele A*24:02, Table 2, dissociation constant Kd value (−log Kd value), >−3.0 = no significant binding ability
[2] = Table 2, dissociation constant Kd value (−log Kd value), >−3.0 = no significant binding ability, read-out: Measured value of allele A*24:02 (converted)
[3] = Table 4, Kd value (−log Kd value), smaller than −3 = binding property, read-out: Measured value of allele A*24:02 (converted)
[4] = Table 2, dissociation constant Kd value (−log Kd value), >−3.0 = no significant binding ability, read-out: Measured value of allele A*02:01 (converted)
[5] = Table 2, dissociation constant Kd value (−log Kd value), >−3.0 = no significant binding ability, read-out: Measured value of allele A*02:06 (converted)

Kd (HLA-A*24:02 molecule; [2]) | Kd (HLA-A*24:02 molecule; [3]) | Kd (HLA-A*02:01 molecule; [4]) | Kd (HLA-A*02:06 molecule; [5]) | Sequence | Kd (HLA-A*24:02 molecule; [1]) | Kd (HLA-A*02:01 molecule) | Kd (HLA-A*02:06 molecule)
– | – | – | – | IALETPVWI [compound 20] | 3.29 µM | 7.77 µM | 3.03 µM
> 1000 µM | > 1000 µM | > 1000 µM | > 1000 µM | IFADVSSST [compound 78] | – | – | –
> 1000 µM | > 1000 µM | > 1000 µM | > 1000 µM | ILSDHQQSQ [compound 70] | – | – | –
– | – | – | – | IQYSSFHNL [compound 21] | 0.294 µM | 5.17 µM | 2.51 µM
10 µM | – | > 1000 µM | 729 µM | ISAYRTCWI [compound 34] | – | – | –
0.133 µM | – | 1.17 µM | 1.56 µM | KFLEAFHEV [compound 8] | – | – | –
> 1000 µM | > 1000 µM | > 1000 µM | 32 µM | LAEEHGATL [compound 61] | – | – | –
7.61 µM | – | > 1000 µM | 911 µM | LAITRKSFI [compound 46] | – | – | –
> 1000 µM | > 1000 µM | > 1000 µM | > 1000 µM | LHEEHGATL [compound 79] | – | – | –
17.5 µM | – | > 1000 µM | > 1000 µM | LHITRKSFI [compound 63] | – | – | –
> 1000 µM | > 1000 µM | 31.9 µM | 15.3 µM | LIEEHGATL [compound 40] | – | – | –
2.5 µM | – | 78.1 µM | 230 µM | LIITRKSFI [compound 29] | – | – | –
0.23 µM | – | 7.39 µM | 23.7 µM | LLITRKSFI [compound 16] | – | – | –
11.1 µM | – | 0.881 µM | 10.9 µM | LLLFSAAAL [compound 1] | – | – | –
0.602 µM | – | 5.74 µM | 296 µM | LLNPNRQTI [compound 23] | – | – | –
5.98 µM | – | 12.1 µM | 2.1 µM | LMEEHGATL [compound 13] | – | – | –

Kd (HLA-A*24:02 molecule; [2]) | Kd (HLA-A*24:02 molecule; [3]) | Kd (HLA-A*02:01 molecule; [4]) | Kd (HLA-A*02:06 molecule; [5]) | Sequence | Kd (HLA-A*24:02 molecule; [1]) | Kd (HLA-A*02:01 molecule) | Kd (HLA-A*02:06 molecule)
0.972 µM | – | 6.26 µM | 29.3 µM | LMITRKSFI [compound 17] | – | – | –
448 µM | – | > 1000 µM | > 1000 µM | LPFSPSQFL [compound 60] | – | – | –
> 1000 µM | > 1000 µM | > 1000 µM | > 1000 µM | LPPARHSTI [compound 76] | – | – | –
> 1000 µM | > 1000 µM | 82.1 µM | 11.9 µM | LTEEHGATL [compound 42] | – | – | –
15 µM | – | > 1000 µM | 162 µM | LTITRKSFI [compound 45] | – | – | –
> 1000 µM | > 1000 µM | 66.1 µM | 13.7 µM | LVEEHGATL [compound 43] | – | – | –
3.47 µM | – | 97.6 µM | 243 µM | LVITRKSFI [compound 30] | – | – | –
0.0716 µM | – | 2.64 µM | 109 µM | MLPQTPSHL [compound 24] | – | – | –
1.44 µM | – | > 1000 µM | > 1000 µM | SLLITRKSF [compound 62] | – | – | –
0.1 µM | – | > 1000 µM | > 1000 µM | SLPFSPSQF [compound 56] | – | – | –
> 1000 µM | > 1000 µM | > 1000 µM | > 1000 µM | SLPNEKQTS [compound 69] | – | – | –
4.89 µM | – | 2.36 µM | 0.572 µM | SLVLTWAAL [compound 14] | – | – | –
> 1000 µM | > 1000 µM | > 1000 µM | > 1000 µM | SPDEFSNDF [compound 73] | – | – | –
> 1000 µM | > 1000 µM | 0.32 µM | 0.0377 µM | SSFEFFEEA [compound 37] | – | – | –
4.47 µM | – | > 1000 µM | > 1000 µM | SSLDPPKVL [compound 55] | – | – | –

From patent US20250236642A1, “PHARMACEUTICAL COMPOSITION FOR TREATMENT OR PREVENTION OF ADULT T-CELL LEUKEMIA” (NEC Corporation, priority 2022, published 2025)
